“Also recorded” adds a separate entry of the source. Where two headings read alike, the source gives them in different places.
Legend:
[1] = system: rats subjected to L5/L6 spinal nerve ligation; assay: Tactile allodynia (von Frey filaments, 50% withdrawal threshold, % MPE) in rats with L5/L6 spinal nerve ligation; format: in vivo, rat; details: for ED50: Rattus norvegicus, read-out: ED50 of the anti-allodynic effect, antiepileptic alone; for Effect on 50% withdrawal threshold (anti-allodynic effect): oxcarbazepine 30-300 mg/kg, pregabalin 0.3-30 mg/kg, vitamin B12 0.06-6 mg/kg
Method: 6-week-old female Wistar rats having a body weight of 140-160 g, were used. Each rat was studied only once and sacrified. The Guidelines for pain investigations in animals (Zimmermann, 1983) were used in all the experiments.
The rats were anesthesized via intraperitoneal route with a mixture of ketamine/xylazine (45 and 12 mg/kg, respectively). A partial incision was carried out in the left transverse lumbar area for isolating and ligating the L5 and L6 left spinal nerves with a silk suture 6-0. The ligation was carried out next to the formation of the sciatic nerve and distal to the dorsal root ganglion. Subsequently, the wound was sutured. Conduct tests were performed 12 days after surgery.
For the determination of tactile allodynia, the rats were placed in individual plastic boxes having a stainless steel metallic mesh bottom during 30 minutes, for their adaptation. The tactile threshold test is based in the induction of the animal's left paw withdrawal to gentle mechanical stimuli. The paw was stimulated by applying mechanical force using different Von Frey filaments ranging from 2.36 g to 6.65 g. The thinner the filament's thickness is, the fewer force is applied, and viceversa. For stimulating the animal's paw, the intermediate filament (3.41 g) was firstly used. The left paw elevation in ten seconds was taken as a positive response and a stimulus with a lower caliber filament was applied. If no withdrawal of the animal's paw occurred, it was considered as a negative response, then a stronger stimulus was applied with the next filament until the animal responded.
Once a change in the response took place, either positive or negative, the stimulation was carried out 4 more times, taking a series of 6 patterns of positive and negative responses (Chaplan et al., 1994). The response patterns were tabulated and the 50% response threshold was calculated by using the Dixon formula (1980).
Graphs of the 50% withdrawal threshold (g) as a function of time (h) were constructed from the obtained data
50% withdrawal threshold (g)=(10^[Xf+Kδ])/10,000
From the data of the 50% withdrawal threshold, bar graphs and dose response curves were constructed for the percentage of anti-allodynic effect represented as the percentage of the maximum possible effect (% MPE), by using the following formula:
% MPE=[(AUC drug−AUC vehicle/(AUC sham−AUC vehicle)]×100
In both curves the value of the ED50 was determined.

[2] = system: rats having neuropathic pain; assay: Motor incoordination observed after oral administration in the allodynia study; details: rat, in vivo, 300 mg/kg
Method: However, with the higher dose (300 mg/kg) the effect was maintained even for 24 hours.
With the higher dose (30 mg/kg) motor incoordination was observed between 1 and 7 hours, whereas with the 10 mg/kg dose, incoordination was observed between 3 and 4 hours after the administration.

plasmatic proteins = details: cited from earlier work
[3] = cited from earlier work
patients = details: doses of from 300 to 600 mg; cited from earlier work
[4] = system: tactile allodynia induced by the linkage of the spinal nerves L5 and L6; details: cited from earlier work

Row | Molecule | ED50 ([1]; oral, single agent, from dose-response curves) [mg/kg] | Time of maximum anti-allodynic effect ([1]; oral) | Time for which the anti-allodynic effect was maintained ([1]; oral, higher dose 300 mg/kg) [h] | Effect on 50% withdrawal threshold (anti-allodynic effect) ([1]; oral) | Motor incoordination, time window after administration [2] [h] | Binding to plasmatic proteins (plasmatic proteins) | ED50 ([1]; po) [mg/kg] | Analgesic effect at 24 hours ([1]; oral, 24 hours after administration) | Bioavailability ([3]; after an oral dose) [%] | Time of maximum plasma peaks ([3]; after an oral dose) | Excreted by the urinary route ([3]; in vivo) | Half-life of elimination ([3]; in vivo) [h] | Metabolism ([3]; in vivo) | Oral absorption ([3]; oral) | Adverse reaction: dizziness (patients) | Adverse reaction: drowsiness (patients) | Analgesic effect at 8 hours ([1]; oral, 8 hours after administration) | Effect on tactile allodynia [4]
1 | NC(=O)N1c2ccccc2CC(=O)c2ccccc21 [oxcarbazepine] | 78.8 | about 3 hours | ≥ 24 | dose-dependent way; also recorded: significantly increased | 2 to 8 | – | – | – | – | – | – | – | – | – | – | – | – | –
2 | CC(C)C[C@H](CN)CC(=O)O [pregabalin] | – | about 2 hours | – | dose-dependent way; also recorded: significantly increased | – | does not link to plasmatic proteins | 3.3 | no longer observed | 90 | an hour and a half | about 98% | 6.3 | minimal metabolism | quickly absorbed | 27-46% | 15-25% | – | –
3 | cyanocobalamin [vitamin B12] | – | about 3 hours | – | significantly increased | – | – | – | – | – | – | – | – | – | – | – | – | no longer observed | capable of reducing tactile allodynia
